# Measurements: patent publication US20240316129A1, “Bacteria and Herbal Extract Nutraceutical Blends for Lung Health Maintenance” (The UAB Research Foundation, priority 2021, published 2024)
# Tests used:
# mice = details: normoxia and under noxious stimuli, P<0.05
# [1] = test system: newborn wild type C57BL/6 mice; assay: Loss of function of Ac-PGP by RTR treatment in LPS-treated newborn mice; assay type: in vivo, mouse; details: under noxious stimuli, LPS+RTR compared to LPS alone, P<0.05
# Source text: FIG. 9A illustrates that newborn wild type C57BL/6 mice were randomized to treatment with RTR, LPS, and RTR+LPS as well as normoxia and noxious stimuli.
# C57BL/6 mouse pups = assay: In vivo (mouse) dysbiosis model of chronic lung disease, LPS-treated pups
# RSB12 = assay: Culture growth of probiotic strain RSB12 with herbal extracts or Vitamin D; assay type: cell-based, Lactobacillus acidophilus; details: number of colonies per plate
# RSB11 = assay: Culture growth of probiotic strain RSB11 with herbal extracts or Vitamin D; assay type: cell-based, Lactobacillus plantarum; details: number of colonies per plate
# RSB13 = assay: Culture growth of probiotic strain RSB13 with herbal extracts or Vitamin D; assay type: cell-based, Lactobacillus rhamnosus; details: number of colonies per plate
# [2] = LPS-treated mice compared to controls, P<0.05
substance,measurement,setting,value
N-acetyl-Proline-Glycine-Proline [Ac-PGP],MPO concentration,mice; ELISA,increased
same,NE concentrations in BALF,mice,increased
same,RAC counts,mice,decreased
same,right ventricular hypertrophy (RVH),mice,increased
arginine-threonine-arginine [RTR],MPO concentrations,[1],significantly lower
same,RAC,[1],significantly higher
same,RVH,[1],significantly less severe
lipopolysaccharide [LPS],lung tissue histology,C57BL/6 mouse pups; LPS-treated C57BL/6 mouse pups,alveolar hypoplasia and simplification
same,myeloperoxidase (MPO) levels in BALF,C57BL/6 mouse pups; [2],significantly increased
same,neutrophil elastase (NE) levels in BALF,C57BL/6 mouse pups; [2],significantly increased
same,radial alveolar counts (RAC),C57BL/6 mouse pups; [2],significantly decreased
same,Ac-PGP levels in BALF,"C57BL/6 mouse pups; LPS-treated mice compared to controls, by HPLC, P<0.05",significantly increased
Vitamin D,culture growth of RSB12,RSB12,do not have an inhibitory effect
same,culture growth of RSB11,RSB11,do not have an inhibitory effect
same,culture growth of RSB13,RSB13,do not have an inhibitory effect
